The results in this text go back to patent US9403786B2, “Anti-inflammatory compounds” (University of South Australia, priority 2009, dated 2016).

The experiment concerns TPA-induced mouse ear oedema. Briefly: TPA-induced mouse ear oedema model. The format is in vivo, Male Balb/C mice. Here is the method: Anti-inflammatory activity was measured in the mouse ear oedema model using 12-O-tetradeconoylphorbol-13-acetate (TPA) (Sigma) or croton oil as the inducer of inflammation (Sanchez, T and Moreno, J 1999, Role of leukocyte influx in tissue prostaglandin H synthase-2 overexpression induced by phorbol ester and arachidonic acid in skin, Biochemical Pharmacology, 58, 877-879.). Male Balb/C mice 7-9 weeks old and weighing 20-25 g were used. Mice were housed in cages at constant room temperature (20±2° C.) with access to food (standard rat/mouse pellet) and water ad libitum. A 12 hr day/night cycle was maintained in the animal holding facility (Reid building animal house, University of South Australia) and all experiments were carried out during the day phase.
Baseline measurements of ear thickness were measured using a digital micrometer (±0.001 mm, Mitutoyo, Japan) prior to the experiment. TPA (2.5 μg/ear), which was dissolved in acetone, was then applied in a volume of 20 μL to the inner surface of the right ear and 20 μL of acetone to the left ear as control. After thirty minutes the test samples, which were dissolved in 80% ethanol, were applied to the inner surface of the right ear and 80% ethanol on the left ear to the respective treatment groups. Betamethasone 17,21-dipropionate (Sigma) (0.9 μmol/ear) was used as a positive control. Multi-dose experiments were conducted over the range 0.005-1.83 μmol/ear. At 2 h, 4 h, 6 h, 8 h, 24 h and 48 h after the application, the ear thicknesses were measured using a digital micrometer. A non-treated control group to which only croton oil or TPA were applied was used as a measure of maximum inflammation achieved with percent inhibition of inflammation of test sample being calculated relative to this group. Following completion of the experiment, mice were euthanized by inhalation of isoflurane followed by cervical dislocation.

Turning to “15,16-epoxy-8(α)-(benzoyloxy)methyl-cleroda-3,13(16), 14-trien-18-oic acid [Compound E]”, the anti-inflammatory activity result (TPA-induced mouse ear oedema model) is on record as “significant anti-inflammatory activity”. Under “dose of 0.91 μmol”, this substance showed a maximum inhibition of 76.4±7.3%. For the same substance, the “effect at lower concentrations” value (doses lower than 1.83 μmol/ear) is given as “no observable effect”. Further, the “activity when compared to TPA only control” value (highest dose tested 1.83 μmol/ear, p<0.05) is listed as “some significant level of activity”.
